Tests used:
[1] = system: DNA synthesis in CEM cells; test: Antimetabolic activity: [CH3-3H]dThd incorporation (DNA synthesis) in CEM cell cultures; type: cell-based; details: Homo sapiens, CCRF-CEM, ~20 h, TCA-insoluble material
Text: (§1) A variety of compounds (2a, 3a, 4a with a cycloalkyl substituent directly attached to nitrogen atom, 2c, 3c, 4c with a cycloalkyl bound to nitrogen through a short spacer and 2e, 3e, 4e with an aromatic substituent) have been investigated on their inhibitory activity against DNA, RNA and protein synthesis in CEM cell cultures. The compounds were equally inhibitory to dThd (DNA synthesis), Urd (RNA synthesis) and Leu (protein synthesis) incorporation into TCA-insoluble cell material. The 2 series of compounds were least inhibitory whereas the 4 series were most inhibitory (IC50 in the lower micromolar range). Their antimetabolic IC50 values closely corresponded to their antiproliferative IC50 values. They also behaved as sorafenib in terms of antimetabolic potential (Table 3).
(§2) The procedures have been modified from previously described methods. Human CEM cells were seeded in 96-well microtiter plates at 10 × 10^4 cells/200 µL-well in the presence of serial dilutions of the tested compounds. Then, 0.25 µCi of [CH3-^3H]dThd (radiospecificity: 52 Ci/mmol) or 1 µCi of [5-^3H]Urd (radiospecificity: 26 Ci/mmol) or [4,5-^3H]Leu (radiospecificity: 160 Ci/mmol) were added and the drug-exposed tumour cell cultures further incubated at 37 °C for ~20 h. Then the content of each well was transfered to glass fiber discs (Wattman, GE Healthcare, Maidstone, UK), mounted on a manifold (Millipore, Billerica, MA, USA) and subsequently washed with PBS (to remove the radiolabel material that has not been incorporated in the cellular macromolecules), 10% and 5% trichoroacetic acid (TCA) (to precipitate DNA, RNA and proteins) and ethanol. Then, the radioactivity (TCA precipitate) associated with each disc was determined in a liquid scintillation counter (Packard, Palo Alto, CA, USA).

[2] = system: protein synthesis in CEM cells; test: Antimetabolic activity: [4,5-3H]Leu incorporation (protein synthesis) in CEM cell cultures; type: cell-based; details: Homo sapiens, CCRF-CEM, ~20 h, TCA-insoluble material
Text: as §1, §2

[3] = system: RNA synthesis in CEM cells; test: Antimetabolic activity: [5-3H]Urd incorporation (RNA synthesis) in CEM cell cultures; type: cell-based; details: Homo sapiens, CCRF-CEM, ~20 h, TCA-insoluble material
Text: as §1, §2

HeLa (cervix carcinoma) = test: Cytostatic activity, Coulter counter; type: cell-based, human; details: Homo sapiens, HeLa; 72 h, cell number by Coulter counter; read-out: Tumour cell growth/IC50 HeLa
Method: (§3) The experiments were carried out on six human tumour and one murine cell lines, which are derived from five solid tumour types and two (one murine and one human) suspension tumour cell lines. The following cell lines were used: HCT 116 (colon carcinoma), SW 620 (colon carcinoma), MCF-7 (breast carcinoma), H 460 (lung carcinoma), L1210 (murine leukemia), CEM (human lymphoma) and HeLa (cervix carcinoma). […] Compounds 3d and 3e with a benzene ring in the amide moiety, exerted a somewhat stronger (but still rather poor) cytostatic effect (IC50 ≈ 20-90 µM). […] The compounds were also equally cytostatic against primary human embryonic lung (HEL) fibroblast cells (Table 2). The obtained data clearly point to the obligatory presence of the [4-chloro-3-(trifluoromethyl)phenyl]carbamoyl group being crucial for high potency. Also, the 4a–e series of compounds are far more lipophilic than the 2 and 3 series of compounds, which may be related to their increased cytostatic potential.
(§4) The cytostatic activity of the tested compounds against murine leukemia L1210, human cervix carcinoma HeLa, human embrionic lung (HEL) and T-lymphocyte CEM cells was determined with cells grown in suspension (L1210, CEM) or monolayers (HeLa, HEL) in 200 µL-wells of 96-well microtiter plates (initial cell number: 5–7.5 × 10^4 cells/well). After 48 (L1210) or 72 (CEM, HeLa, HEL) h, the tumour cell number was determined by the use of a Coulter counter.

L1210 (murine leukemia) = test: Cytostatic activity, Coulter counter; type: cell-based; details: Mus musculus, L1210; 48 h, cell number by Coulter counter; read-out: Tumour cell growth/IC50 L1210
Method: as §3, §4

CEM (human lymphoma) = test: Cytostatic activity, Coulter counter; type: cell-based; details: Homo sapiens; 72 h, cell number by Coulter counter; read-out: Tumour cell growth/IC50 CEM
Method: as §3, §4

[4] = system: primary human embryonic lung (HEL) fibroblast cells; test: Cytostatic activity, Coulter counter; type: cell-based; details: Homo sapiens, Fibroblast; 72 h, cell number by Coulter counter; primary fibroblasts
Method: as §3, §4

CaCo-2 cell cultures = test: Uptake at apical side and release at basolateral side of CaCo-2 cell cultures; type: in vitro ADME, human; details: 100 µmol·L^–1 at apical side, 0-24 h, HPLC
Text: Derivatives 2a, 3a and 4a have been examined for their efficiency of uptake at the apical site and subsequent delivery at the basolateral site of colon carcinoma CaCo-2 cell cultures. This model system can be used to predict the potential of a drug to show oral bioavailability. Sorafenib was included as the reference compound. […] The molecular basis of this phenomenon is yet unclear.
Figure 1 Release of the tested compounds at the basolateral side by CaCo-2 cell cultures. Hundred micromolar concentrations of the tested compounds were added at the apical side of confluent CaCo-2 cell cultures, and the appearance of the intact tested compound at the basolateral side was measured by HPLC analysis.
Human colon carcinoma CaCo-2 cells were seeded in the inner wells of a double-chamber-well-tray at 150,000 cells (0.5 mL) per 1 mL-well. The outer wells also contain 0.5 mL medium (without cells). After the cells were grown to confluency (~2 days) at 37 °C in a humidified CO2-controlled atmosphere, 100 µmol·L^–1 tested compound (final concentration) was added to the inner well, and the medium from the outer wells was replaced by 800 µL PBS (containing 10% foetal bovine serum). At different time points (i.e., 0, 2, 4, 6, 8 and 24 h), 50 µL was removed from the outer wells and mixed with 100 µL cold methanol. The mixture was left on ice for 10 min, centrifuged to remove the precipitate, and the supernatant was analysed by HPLC (reversed phase) to determine the drug concentration that appeared in the outer wells (reflecting basolateral drug efflux) in function of time.

MCF-7 (breast carcinoma) = test: Cytostatic activity, MTT assay; type: cell-based, human; details: Homo sapiens, MCF7, 72 h, read-out: Tumour cell growth/IC50 MCF-7
Method: as §3
(§5) HCT 116, SW 620, MCF-7, and H 460 cells were cultured as monolayers and maintained in Dulbecco’s modified Eagle medium (DMEM), supplemented with 10% fetal bovine serum (FBS), 2 mmol·L^–1 L-glutamine, 100 U·mL^–1 penicillin and 100 μg·mL^–1 streptomycin in a humidified atmosphere with 5% CO2 at 37 °C. The growth inhibition activity was assessed as described previously, according to the slightly modified procedure of the National Cancer Institute, Developmental Therapeutics Program. Briefly, the cells were seeded onto standard 96-well microtiter plates on day 0. The cell concentrations were adjusted according to the cell population doubling time (PDT): 3000 cells/well for HCT116 and SW 620 cell lines (PDT = 20–24 h) and 4,000 cells/well for MCF-7 cell lines (PDT = 33 h). Tested agents were then added in five consecutive 10-fold dilutions (10^–8 to 10^–4 mol·L^–1) and incubated for further 72 h. Working dilutions were freshly prepared on the day of testing. The solvent (DMSO) was also tested for eventual inhibitory activity by adjusting its concentration to be the same as in working concentrations (maximal concentration of DMSO was 0.25%). After 72 h of incubation, the cell growth rate was evaluated by performing the MTT assay (Promega) which detects dehydrogenase activity in viable cells. The absorbency (OD, optical density) was measured on a microplate reader at 570 nm. Each test point was performed in quadruplicate in at least three individual experiments. The results are expressed as IC50, which is the concentration necessary for 50% of inhibition. […] Each result is a mean value from three separate experiments.

H 460 (lung carcinoma) = test: Cytostatic activity, MTT assay; type: cell-based, human; details: Homo sapiens, NCI-H460, 72 h, read-out: Tumour cell growth/IC50 H 460
Method: as §3, §5

SW 620 (colon carcinoma) = test: Cytostatic activity, MTT assay; type: cell-based, human; details: Homo sapiens, SW-620, 72 h, read-out: Tumour cell growth/IC50 SW 620
Method: as §3, §5

[5] = system: HCT 116 (colon carcinoma); test: Cytostatic activity, MTT assay; type: cell-based, human; details: Homo sapiens, HCT-116, 72 h, read-out: Tumour cell growth/IC50 HCT 116
Method: as §3, §5

[6] = system: panel of carcinoma, lymphoma and leukemia tumour cell lines; test: Cytostatic activity across the panel of tumour cell lines; type: cell-based; details: Table 2; read-out: IC50 (cytostatic effect, range over cell lines)
Method: as §3, with “The obtained data clearly point to the obligatory presence of the [4-chloro-3-(trifluoromethyl)phenyl]carbamoyl group being crucial for high potency. Also, the 4a–e series of compounds are far more lipophilic than the 2 and 3 series of compounds, which may be related to their increased cytostatic potential.” left out
HCT 116, SW 620, MCF-7, and H 460 cells were cultured as monolayers and maintained in Dulbecco’s modified Eagle medium (DMEM), supplemented with 10% fetal bovine serum (FBS), 2 mmol·L^–1 L-glutamine, 100 U·mL^–1 penicillin and 100 μg·mL^–1 streptomycin in a humidified atmosphere with 5% CO2 at 37 °C. The growth inhibition activity was assessed as described previously, according to the slightly modified procedure of the National Cancer Institute, Developmental Therapeutics Program. […] After 72 h of incubation, the cell growth rate was evaluated by performing the MTT assay (Promega) which detects dehydrogenase activity in viable cells. The absorbency (OD, optical density) was measured on a microplate reader at 570 nm. […]

`O=C(NC1CCCC1)c1cc(Cl)ccn1` [Compound 2a, 4-Chloro-N-cyclopentylpyridine-2-carboxamide] was tested, and the IC50 [1] was > 100 µM, the IC50 [2] was > 100 µM and the IC50 [3] was > 100 µM. For the same compound, the IC50 (HeLa (cervix carcinoma)) was > 100 µM, the IC50 (L1210 (murine leukemia)) was > 100 µM and the IC50 (CEM (human lymphoma)) was > 100 µM. The IC50 [4] was > 100 µM, the “Drug delivery at the basolateral site compared with sorafenib” value (CaCo-2 cell cultures) was “higher drug delivery at the basolateral site than sorafenib” and the IC50 (MCF-7 (breast carcinoma)) was > 100 µM. For the same compound, the IC50 (H 460 (lung carcinoma)) was ≥ 100 µM, the IC50 (SW 620 (colon carcinoma)) was > 100 µM and the IC50 [5] was > 100 µM.

For `Nc1ccc(Oc2ccnc(C(=O)NC3CCCC3)c2)cc1` [Compound 3a, 4-(4-Aminophenoxy)-N-cyclopentylpyridine-2-carboxamide], the IC50 [1] was > 100 µM, the IC50 [2] was > 100 µM and the IC50 [3] was > 100 µM. For the same compound, the IC50 (HeLa (cervix carcinoma)) was 77 ± 3.4 µM, the IC50 (L1210 (murine leukemia)) was 121 ± 50.5 µM and the IC50 (CEM (human lymphoma)) was ≥ 100 µM. The IC50 [4] was > 100 µM, the “Drug delivery at the basolateral site compared with sorafenib” value (CaCo-2 cell cultures) was “higher drug delivery at the basolateral site than sorafenib” and the IC50 (MCF-7 (breast carcinoma)) was 53 ± 40 µM. For the same compound, the IC50 (H 460 (lung carcinoma)) was > 100 µM, the IC50 (SW 620 (colon carcinoma)) was ≥ 100 µM and the IC50 [5] was 54 ± 21 µM.

With `Nc1ccc(Oc2ccnc(C(=O)NCc3ccccc3)c2)cc1` [Compound 3d, 4-(4-Aminophenoxy)-N-benzylpyridine-2-carboxamide] the IC50 [6] was 20 to 90 µM, the IC50 (HeLa (cervix carcinoma)) was 94 ± 1.9 µM and the IC50 (L1210 (murine leukemia)) was 66 ± 3.1 µM. The IC50 (CEM (human lymphoma)) was 94 ± 2.2 µM, the IC50 [4] was > 100 µM and the IC50 (MCF-7 (breast carcinoma)) was 29 ± 13 µM. It also gave an IC50 (H 460 (lung carcinoma)) of 42 ± 9 µM, an IC50 (SW 620 (colon carcinoma)) of 37 ± 6 µM and an IC50 [5] of 29 ± 4 µM.

From article PMC6268433, “New Sorafenib Derivatives: Synthesis, Antiproliferative Activity Against Tumour Cell Lines and Antimetabolic Evaluation” (Molecules, 2012)
